Assay results as given in patent US20070128217A1 (priority 2003, published 2007).

Assays:
[1] = tested on: antibodies in sera from SARS patients (sera 1a, 1b, 2, 6, 37, 62, London, SARS-yellow, SARS-green); format: binding, human; parameters: Binding of serum 6 to linear peptides of protein X1 of SARS-CoV Urbani / Binding of serum 37 to linear peptides of protein X1 of SARS-CoV Urbani / Binding of serum 6 to looped/cyclic peptide (PEPSCAN-ELISA) / Binding of serum 37 to looped/cyclic peptide (PEPSCAN-ELISA) / Binding of serum 37 to looped/cyclic peptides of protein X1 of SARS-CoV Urbani / Binding of serum 6 to linear peptides of protein X2 / Binding of serum 37 to linear peptides of protein X2 / Binding of serum 37 to looped/cyclic peptides of protein X2 of SARS-CoV Urbani / Binding of serum 6 to linear peptides of protein M of SARS-CoV Urbani / Binding of serum 37 to linear peptides of protein M of SARS-CoV Urbani / Binding of serum 6 to looped/cyclic peptides of protein M of SARS-CoV Urbani / Binding of serum 37 to looped/cyclic peptides of protein M of SARS-CoV Urbani / Binding of serum 6 to linear peptides of protein X3 of SARS-CoV Urbani / Binding of serum 37 to linear peptides of protein X3 of SARS-CoV Urbani / Binding of serum 37 to looped/cyclic peptides of protein X3 of SARS-CoV Urbani / Binding of serum 6 to linear peptides of protein X4 of SARS-CoV Urbani / Binding of serum 37 to linear peptides of protein X4 of SARS-CoV Urbani / Binding of serum 37 to looped/cyclic peptides of protein X4 of SARS-CoV Urbani / Binding of serum 6 to linear peptides of protein X5 of SARS-CoV Urbani / Binding of serum 37 to linear peptides of protein X5 of SARS-CoV Urbani / Binding of serum 37 to looped/cyclic peptides of protein X5 of SARS-CoV Urbani / Binding of serum 6 to linear peptides of protein N of SARS-CoV Urbani / Binding of serum 37 to linear peptides of protein N of SARS-CoV Urbani / Binding of serum 6 to linear peptide (PEPSCAN-ELISA) / Binding of serum 1a to looped/cyclic peptides of protein N of SARS-CoV Urbani / Binding of serum 1b to looped/cyclic peptides of protein N of SARS-CoV Urbani / Binding of serum 2 to looped/cyclic peptides of protein N of SARS-CoV Urbani / Binding of serum 6 to looped/cyclic peptides of protein N of SARS-CoV Urbani / Binding of serum 37 to looped/cyclic peptides of protein N of SARS-CoV Urbani / Binding of serum 62 to looped/cyclic peptides of protein N of SARS-CoV Urbani / Binding of serum London to looped/cyclic peptides of protein N of SARS-CoV Urbani / Binding of serum SARS-green to looped/cyclic peptides of protein N of SARS-CoV Urbani: unit not given here
[2] = tested on: control sera (pooled serum of ten healthy LUMC hospital workers; commercial negative donor pooled serum from the Dutch bloodbank); format: binding, human; parameters: Binding of Control serum LUMC to linear peptides / Binding of Control serum Blood-bank to linear peptides / Binding of Control serum LUMC to looped peptides / Binding of Control Serum Blood-Bank to Looped peptides / Binding of Control serum LUMC to linear peptides of the protein M of SARS-CoV Urbani / Binding of Control serum Blood-bank to linear peptides of the protein M of SARS-CoV Urbani / Binding of Control serum LUMC to looped peptides of the protein M of SARS-CoV Urbani / Binding of Control Serum Blood-Bank to Looped peptides of the protein M of SARS-CoV Urbani: unit not given here
[3] = tested on: rabbit serum obtained by immunizing a rabbit with the SARS-CoV strain Frankfurt 1; format: binding; parameters: Binding of a rabbit serum to linear peptides / Binding of a rabbit serum to looped peptides / Rabbit serum linear peptides / Rabbit serum looped peptides / Binding of a rabbit serum to linear peptides of protein N of SARS-CoV Urbani (Rabbit serum linear peptides) / Binding of a rabbit serum to looped/cyclic peptides of protein N of SARS-CoV Urbani (Rabbit serum looped peptides): unit not given here
[4] = tested on: recombinant human anti-SARS-CoV antibody 03-018; format: binding; parameters: Binding of antibody 03-018 to linear peptides of the N protein of SARS-CoV Urbani / Binding of antibody 03-018 to looped/cyclic peptides of the N protein of SARS-CoV Urbani: unit not given here

Sequence: LSPRWYFYYLGTGPE
- Binding of serum 1a to linear peptides of protein N of SARS-CoV Urbani [1]: 0.3
- Binding of serum 1a to looped/cyclic peptides of protein N of SARS-CoV Urbani [1]: 0.3
- Binding of serum 1b to linear peptides of protein N of SARS-CoV Urbani [1]: 0.3
- Binding of serum 1b to looped/cyclic peptides of protein N of SARS-CoV Urbani [1]: 0.3
- Binding of serum 2 to linear peptides of protein N of SARS-CoV Urbani [1]: 0.2
- Binding of serum 2 to looped/cyclic peptides of protein N of SARS-CoV Urbani [1]: 0.5
- Binding of serum 6 to linear peptides of protein N of SARS-CoV Urbani [1]: 0.2
- Binding of serum 6 to looped/cyclic peptides of protein N of SARS-CoV Urbani [1]: 0.2
- Binding of serum 37 to linear peptides of protein N of SARS-CoV Urbani [1]: 1.0
- Binding of serum 37 to looped/cyclic peptides of protein N of SARS-CoV Urbani [1]: 0.8
- Binding of serum 62 to linear peptides of protein N of SARS-CoV Urbani [1]: 0.9
- Binding of serum 62 to looped/cyclic peptides of protein N of SARS-CoV Urbani [1]: 0.8
- Binding of serum London to linear peptides of protein N of SARS-CoV Urbani [1]: 0.5
- Binding of serum London to looped/cyclic peptides of protein N of SARS-CoV Urbani [1]: 0.3
- Binding of serum SARS-green to linear peptides of protein N of SARS-CoV Urbani [1]: 0.9
- Binding of serum SARS-green to looped/cyclic peptides of protein N of SARS-CoV Urbani [1]: 0.6
- Binding of serum SARS-yellow to linear peptides of protein N of SARS-CoV Urbani [1]: 0.6
- Binding of serum SARS-yellow to looped/cyclic peptides of protein N of SARS-CoV Urbani [1]: 0.5
- Binding of Control Serum Blood-Bank to Looped peptides [2]: 0.5
- Binding of Control serum Blood-bank to linear peptides [2]: 0.7
- Binding of Control serum LUMC to linear peptides [2]: 0.8
- Binding of Control serum LUMC to looped peptides [2]: 0.6
- Binding of a rabbit serum to linear peptides of protein N of SARS-CoV Urbani (Rabbit serum linear peptides) [3]: 0.2
- Binding of a rabbit serum to looped/cyclic peptides of protein N of SARS-CoV Urbani (Rabbit serum looped peptides) [3]: 1.1
- Binding of antibody 03-018 to linear peptides of the N protein of SARS-CoV Urbani [4]: 0.1
- Binding of antibody 03-018 to looped/cyclic peptides of the N protein of SARS-CoV Urbani [4]: 0.2

Sequence: SRNSTPGSSRGNSPA
- Binding of serum 1a to linear peptide (PEPSCAN-ELISA) [1]: 0.7
- Binding of serum 1a to looped/cyclic peptides of protein N of SARS-CoV Urbani [1]: 0.6
- Binding of serum 1b to linear peptide (PEPSCAN-ELISA) [1]: 0.5
- Binding of serum 1b to looped/cyclic peptides of protein N of SARS-CoV Urbani [1]: 0.6
- Binding of serum 2 to linear peptide (PEPSCAN-ELISA) [1]: 0.4
- Binding of serum 2 to looped/cyclic peptides of protein N of SARS-CoV Urbani [1]: 0.4
- Binding of serum 6 to linear peptide (PEPSCAN-ELISA) [1]: 0.2
- Binding of serum 6 to looped/cyclic peptides of protein N of SARS-CoV Urbani [1]: 0.4
- Binding of serum 37 to linear peptide (PEPSCAN-ELISA) [1]: 0.8
- Binding of serum 37 to looped/cyclic peptides of protein N of SARS-CoV Urbani [1]: 0.5
- Binding of serum 62 to linear peptide (PEPSCAN-ELISA) [1]: 0.9
- Binding of serum 62 to looped/cyclic peptides of protein N of SARS-CoV Urbani [1]: 0.5
- Binding of serum London to linear peptide (PEPSCAN-ELISA) [1]: 0.6
- Binding of serum London to looped/cyclic peptides of protein N of SARS-CoV Urbani [1]: 0.4
- Binding of serum SARS-green to linear peptide (PEPSCAN-ELISA) [1]: 0.4
- Binding of serum SARS-green to looped/cyclic peptides of protein N of SARS-CoV Urbani [1]: 0.3
- Binding of serum SARS-yellow to linear peptide (PEPSCAN-ELISA) [1]: 0.7
- Binding of serum SARS-yellow to looped/cyclic peptides of protein N of SARS-CoV Urbani [1]: 0.4
- Binding of Control Serum Blood-Bank to Looped peptides [2]: 0.7
- Binding of Control serum Blood-bank to linear peptides [2]: 0.9
- Binding of Control serum LUMC to linear peptides [2]: 0.9
- Binding of Control serum LUMC to looped peptides [2]: 0.7
- Binding of a rabbit serum to linear peptides of protein N of SARS-CoV Urbani (Rabbit serum linear peptides) [3]: 0.1
- Binding of a rabbit serum to looped/cyclic peptides of protein N of SARS-CoV Urbani (Rabbit serum looped peptides) [3]: 0.6
- Binding of antibody 03-018 to linear peptides of the N protein of SARS-CoV Urbani [4]: 0.1
- Binding of antibody 03-018 to looped/cyclic peptides of the N protein of SARS-CoV Urbani [4]: 0.2

Sequence: SRQLQNSMSGASADS
- Binding of serum 1a to linear peptides of protein N of SARS-CoV Urbani [1]: 0.2
- Binding of serum 1a to looped/cyclic peptides of protein N of SARS-CoV Urbani [1]: 0.2
- Binding of serum 1b to linear peptides of protein N of SARS-CoV Urbani [1]: 0.1
- Binding of serum 1b to looped/cyclic peptides of protein N of SARS-CoV Urbani [1]: 0.1
- Binding of serum 2 to linear peptides of protein N of SARS-CoV Urbani [1]: 0.2
- Binding of serum 2 to looped/cyclic peptides of protein N of SARS-CoV Urbani [1]: 0.3
- Binding of serum 6 to linear peptides of protein N of SARS-CoV Urbani [1]: 0.2
- Binding of serum 6 to looped/cyclic peptides of protein N of SARS-CoV Urbani [1]: 0.1
- Binding of serum 37 to linear peptides of protein N of SARS-CoV Urbani [1]: 0.8
- Binding of serum 37 to looped/cyclic peptides of protein N of SARS-CoV Urbani [1]: 0.4
- Binding of serum 62 to linear peptides of protein N of SARS-CoV Urbani [1]: 0.6
- Binding of serum 62 to looped/cyclic peptides of protein N of SARS-CoV Urbani [1]: 0.3
- Binding of serum London to linear peptides of protein N of SARS-CoV Urbani [1]: 0.6
- Binding of serum London to looped/cyclic peptides of protein N of SARS-CoV Urbani [1]: 0.2
- Binding of serum SARS-green to linear peptides of protein N of SARS-CoV Urbani [1]: 0.5
- Binding of serum SARS-green to looped/cyclic peptides of protein N of SARS-CoV Urbani [1]: 0.3
- Binding of serum SARS-yellow to linear peptides of protein N of SARS-CoV Urbani [1]: 0.5
- Binding of serum SARS-yellow to looped/cyclic peptides of protein N of SARS-CoV Urbani [1]: 0.2
- Control Serum Blood-Bank Looped peptides [2]: 0.5
- Control serum Blood-bank linear peptides [2]: 0.8
- Control serum LUMC linear peptides [2]: 0.7
- Control serum LUMC looped peptides [2]: 0.3
- Binding of a rabbit serum to linear peptides of protein N of SARS-CoV Urbani (Rabbit serum linear peptides) [3]: 0.5
- Binding of a rabbit serum to looped/cyclic peptides of protein N of SARS-CoV Urbani (Rabbit serum looped peptides) [3]: 0.6
- Binding of antibody 03-018 to linear peptides of the N protein of SARS-CoV Urbani [4]: 0.1
- Binding of antibody 03-018 to looped/cyclic peptides of the N protein of SARS-CoV Urbani [4]: 0.2

Sequence: YLGTGPEASLPYGAN
- Binding of serum 1a to linear peptides of protein N of SARS-CoV Urbani [1]: 0.2
- Binding of serum 1a to looped/cyclic peptides of protein N of SARS-CoV Urbani [1]: 0.4
- Binding of serum 1b to linear peptides of protein N of SARS-CoV Urbani [1]: 0.1
- Binding of serum 1b to looped/cyclic peptides of protein N of SARS-CoV Urbani [1]: 0.3
- Binding of serum 2 to linear peptides of protein N of SARS-CoV Urbani [1]: 0.2
- Binding of serum 2 to looped/cyclic peptides of protein N of SARS-CoV Urbani [1]: 0.4
- Binding of serum 6 to linear peptides of protein N of SARS-CoV Urbani [1]: 0.2
- Binding of serum 6 to looped/cyclic peptides of protein N of SARS-CoV Urbani [1]: 0.2
- Binding of serum 37 to linear peptides of protein N of SARS-CoV Urbani [1]: 0.7
- Binding of serum 37 to looped/cyclic peptides of protein N of SARS-CoV Urbani [1]: 0.8
- Binding of serum 62 to linear peptides of protein N of SARS-CoV Urbani [1]: 0.6
- Binding of serum 62 to looped/cyclic peptides of protein N of SARS-CoV Urbani [1]: 0.7
- Binding of serum London to linear peptides of protein N of SARS-CoV Urbani [1]: 0.5
- Binding of serum London to looped/cyclic peptides of protein N of SARS-CoV Urbani [1]: 0.5
- Binding of serum SARS-green to linear peptides of protein N of SARS-CoV Urbani [1]: 0.3
- Binding of serum SARS-green to looped/cyclic peptides of protein N of SARS-CoV Urbani [1]: 0.6
- Binding of serum SARS-yellow to linear peptides of protein N of SARS-CoV Urbani [1]: 0.6
- Binding of serum SARS-yellow to looped/cyclic peptides of protein N of SARS-CoV Urbani [1]: 0.6
- Binding of Control Serum Blood-Bank to Looped peptides [2]: 0.7
- Binding of Control serum Blood-bank to linear peptides [2]: 0.6
- Binding of Control serum LUMC to linear peptides [2]: 0.8
- Binding of Control serum LUMC to looped peptides [2]: 0.7
- Binding of a rabbit serum to linear peptides of protein N of SARS-CoV Urbani (Rabbit serum linear peptides) [3]: 0.1
- Binding of a rabbit serum to looped/cyclic peptides of protein N of SARS-CoV Urbani (Rabbit serum looped peptides) [3]: 0.6
- Binding of antibody 03-018 to linear peptides of the N protein of SARS-CoV Urbani [4]: 0.1
- Binding of antibody 03-018 to looped/cyclic peptides of the N protein of SARS-CoV Urbani [4]: 0.2
